Results as given in patent US20100041704A1, “DERMAL COMPOSITIONS OF SUBSTITUTED AMIDES AND THE USE THEREOF AS MEDICATION FOR PAIN AND PRURITUS” (priority 2007, published 2010).
Structures can show the parent of a compound that is named as a salt.

Assays:
[1] = saturation solubility in topical solvents/penetration enhancers; assay type: physicochemical
Experimental: Melting point ranges were determined with a capillary apparatus (Stuart) using a heating rate of 1° C./min. Moisture was measured using Karl Fischer titration (Schott TitroLine KF). Solubility was measured by adding an excess of solid to the solvent and allowing this suspension to equilibrate at 19-21° C. for at least 24 hours. […]
Solubility was measured by adding an excess of solid to the solvent and allowing this suspension to equilibrate at 19-21° C. for at least 24 hours. […]

[2] = tested on: New Zealand White rabbits (skin); assay: dermal irritation studies; assay type: in vivo, rabbit; conditions: DMSO at lower concentrations (<90%) in combination with bupivacaine or ropivacaine
Experimental: Dermal irritation studies are performed in male and female New Zealand White rabbits (Harlan). This albino rabbit is recommended as the preferred species because of its size, skin permeability and extensive database. The number of animals being used in these studies is consistently increasing as new compositions are tested and previously tested compositions are being retested as references. Within 24 hours before the initiation of the test, fur is removed from the upper and lower dorsal trunks by clipping. Care is taken to avoid abrading the skin and only animals with healthy intact skin are being used. Histamine is used as the pruritic irritant. The compositions to be tested are applied to the skin of the animals for 60 min (±5 min). The new compositions, with or without bupivacaine 5 to 10 percent, are applied on 6-ply gauze pads (4.5 cm×4.5 cm) and held in place with Tegaderm® dressing for the entire exposure duration. After the exposure period, residual test article is removed with water or other appropriate solvent, without altering the existing response or the integrity of the epidermis. Prior to dosing and repeatedly post dosing, dermal irritation is scored for erythema/eschar and edema.

[3] = ternary solvent mixtures with water as anti-solvent; assay type: physicochemical; conditions: 1 ml polyethylene glycol + 1 ml ethanol, presence of 0.6 ml water
sciatic nerve = sciatic nerve block in the rat, duration by algesimeter; assay type: in vivo; conditions: for duration of sensory nerve block / local anesthesia: injection of 0.5% solution, N=10-12
[4] = tested on: nerve ligation model in the rat (L5 and L6 spinal roots of the sciatic nerve); assay: nerve ligation model of neuropathic pain in the rat (tail flick, pinprick allodynia); assay type: in vivo; conditions: for activity in animal model of neuropathic pain: rat nerve ligation model
[5] = tested on: guinea pigs (dermal anesthesia); assay: potentiation study: dermal anesthesia in guinea pigs, pinprick methodology; assay type: in vivo; conditions: guinea pigs N=8
[6] = tested on: human leukocytes (buffy coat); assay: inhibition of A23187-stimulated histamine release from human leukocytes; assay type: cell-based; conditions: A23187 5 μM, 20 min/37° C.
Experimental: In the present studies, histamine was the marker compound for algesic mediators that are released into the tissues of patients suffering from neuropathic pain. The inhibition of stimulated histamine release from human leukocytes (buffy coat) by test articles was studied. Leukocytes were obtained from healthy volunteers and histamine release was induced by incubation (20 min/37° C.) with the calcium ionophore A23187 (5 μM) in the presence or absence of a test article. Histamine was analyzed by enzyme-immuno assays, using commercially available kits and a microplate reader (MRX, Dynatech).

[7] = tested on: mice with diet-induced pruritus; assay: pruritus model: mice fed diet low in Mg2+ and Zn2+, scratching; conditions: mouse, in vivo
[8] = saturation solubility in pentane (model propellant); assay type: physicochemical; conditions: base
Source text: In addition to the solubility experiments shown above, the solubilities of bupivacaine and ropivacaine were also investigated using pentane since this is a low molecular weight hydrocarbon, commonly used to model a GRAS (generally recognized as safe) aerosol propellant such as butane.

[9] = concentrations up to 0.075 percent (Mason L et al. 2004); cited from earlier work
[10] = in ethanol, 19-21° C., at least 24 hours, HPLC
[11] = in hexylene glycol, 19-21° C., at least 24 hours, HPLC
[12] = in isopropyl alcohol, 19-21° C., at least 24 hours, HPLC
[13] = in propylene glycol, 19-21° C., at least 24 hours, HPLC
[14] = in diisopropyl adipate, 19-21° C., at least 24 hours, HPLC
[15] = in isopropyl myristate, 19-21° C., at least 24 hours, HPLC

## CCCCN1CCCCC1C(=O)Nc1c(C)cccc1C.Cl.O (racemic) [Racemic HCl monohydrate]
[1]; [10]
  Solubility of bupivacaine (% w/w): 4.3 % w/w
[1]; [11]
  Solubility of bupivacaine (% w/w): 2.1 % w/w
[1]; [12]
  Solubility of bupivacaine (% w/w): 0.5 % w/w
[1]; [13]
  Solubility of bupivacaine (% w/w): 3.2 % w/w

## CCCCN1CCCCC1C(=O)Nc1c(C)cccc1C (racemic) [Racemic free base]
[1]; [14]
  Solubility of bupivacaine (% w/w): 6.2 % w/w
[1]; [10]
  Solubility of bupivacaine (% w/w): 36.8 % w/w
[1]; [11]
  Solubility of bupivacaine (% w/w): 17.8 % w/w
[1]; [12]
  Solubility of bupivacaine (% w/w): 20.5 % w/w
[1]; [15]
  Solubility of bupivacaine (% w/w): 3.5 % w/w
[1]; [13]
  Solubility of bupivacaine (% w/w): 4.8 % w/w

## CCCCN1CCCC[C@H]1C(=O)Nc1c(C)cccc1C (single isomer, unassigned) [Isomer HCl monohydrate]
[1]; in ethanol, determined gravimetrically
  Solubility of bupivacaine (% w/w): 3.8-4.4^1 % w/w

## CCCCN1CCCC[C@H]1C(=O)Nc1c(C)cccc1C (single isomer, unassigned) [Isomer free base]
[1]; [14]
  Solubility of bupivacaine (% w/w): 2.7 % w/w
[1]; [10]
  Solubility of bupivacaine (% w/w): 16.5 % w/w
[1]; [11]
  Solubility of bupivacaine (% w/w): 8.0 % w/w
[1]; [12]
  Solubility of bupivacaine (% w/w): 8.9 % w/w
[1]; [15]
  Solubility of bupivacaine (% w/w): 1.6 % w/w
[1]; [13]
  Solubility of bupivacaine (% w/w): 2.1 % w/w

## C[S+](C)[O-] [DMSO, Dimethyl sulfoxide]
[2]
  dermal irritation of DMSO with local anesthetic: do not cause increased dermal irritation

## CCCN1CCCC[C@H]1C(=O)Nc1c(C)cccc1C [S-ropivacaine free base]
[1]; S-ropivacaine free base in diisopropyl adipate, 19-21° C., at least 24 hours
  Solubility, % w/w: 1.7 % w/w
[1]; S-ropivacaine free base in ethanol, 19-21° C., at least 24 hours
  Solubility, % w/w: 10.0 % w/w
[1]; S-ropivacaine free base in hexylene glycol, 19-21° C., at least 24 hours
  Solubility, % w/w: 5.1 % w/w
[1]; S-ropivacaine free base in isopropyl alcohol, 19-21° C., at least 24 hours
  Solubility, % w/w: 5.2 % w/w
[1]; S-ropivacaine free base in isopropyl myristate, 19-21° C., at least 24 hours
  Solubility, % w/w: 0.9 % w/w
[1]; S-ropivacaine free base in propylene glycol, 19-21° C., at least 24 hours
  Solubility, % w/w: 1.6 % w/w
[1]; all solvents of Table 6
  solubility compared with bupivacaine free base: consistently lower
[3]
  solubility in ternary solvent mixture with water as anti-solvent: dramatically decreased

## CCCCN1CCCCC1C(=O)Nc1c(C)cccc1C (stereo not shown) [bupivacaine HCl]
Sciatic nerve; injection of 0.25% solution, algesimeter (5 gram), rat
  duration of sensory nerve block: 70 ± 5 min
Sciatic nerve; algesimeter (5 gram), rat
  duration of sensory nerve block / local anesthesia: 99 ± 7 min

## CCCCN1CCCCC1C(=O)Nc1c(C)cccc1C (stereo not shown) [bupivacaine, RS—N-(2,6-dimethylphenyl)-1-butylpiperidine-2-carboxamide]
[4]; neuropathic pain model, single administration
  duration of analgesic activity compared with lidocaine: longer duration than that offered by lidocaine
[4]; repeated administrations
  pain relief after repeated administrations: long-lasting (days not hours) pain relief
[4]; single systemic administration (0.5%), algesimeter set at 5 grams
  anti-allodynic effect (paw withdrawal, pinprick): prolonged anti-allodynic effect
[4]; single systemic administration of bupivacaine (0.5%) three days after nerve ligation, tail flick in warm (140° F.) water
  analgesia, tail-flick test method: 100%
Sciatic nerve; after injections, doses as low as
  dose causing motor nerve blocks after injections: ≥ 0.1%
[5]; 5% in DMSO/water in a dermal patch, applied for 60 min, pinprick
  duration of dermal anesthesia: 60 ± 5 min
[6]
  inhibition of stimulated histamine release: significant inhibitory activity
  potency on histamine release compared with lidocaine: more potent than lidocaine
[7]
  antipruritic activity / safety and efficacy in animal model of pruritus: antipruritic activity
[8]
  Saturation solubility in pentane: >0.1%

## COc1cc(CNC(=O)CCCC/C=C/C(C)C)ccc1O [capsaicin]
[5]; capsaicin alone, low dose
  dermal anesthesia (in words): too low to result in measurable dermal anesthesia
[9]
  efficacy of dermal capsaicin: only marginally effective

## CCN(CC)CC(=O)Nc1c(C)cccc1C [lidocaine]
[4]
  activity in animal model of neuropathic pain: had activity
Sciatic nerve; algesimeter (5 gram), rat
  duration of sensory nerve block / local anesthesia: approximately 40 min

## Cc1cccc(C)c1NC(=O)C1CCCCN1C (stereo not shown) [mepivacaine]
Sciatic nerve; algesimeter (5 gram), rat
  duration of sensory nerve block / local anesthesia: approximately 40 min

## CCCN1CCCCC1C(=O)Nc1c(C)cccc1C (stereo not shown) [ropivacaine, RS—N-(2,6-dimethylphenyl)-1-propylpiperidine-2-carboxamide]
[4]
  activity in animal model of neuropathic pain: had activity
[7]
  antipruritic activity / safety and efficacy in animal model of pruritus: antipruritic activity
[8]
  Saturation solubility in pentane: >0.1%
